According to patent US10507207B2, “Non-nucleosidic inhibitors of reverse transcriptase as antagonists of cell proliferation and inducers of cell differentiation” (ISTITUTO SUPERIORE DI SANITA, priority 2001, dated 2019):

What was measured:
HL60 cells [1] = assay: Growth, viable cell count; format: cell-based, human; conditions: HL60, RA 1 μM, 4 days
NB4 cells [2] = assay: Growth, viable cell count; format: cell-based, human; conditions: NB4, RA 1 μM, 4 days
HL60 cells [3] = assay: NBT dye reduction assay; format: cell-based, human; conditions: HL60, RA 1 μM, 4 days
NB4 cells [4] = assay: Cytofluorimetric analysis of cell surface markers; format: cell-based, human; conditions: NB4, RA 1 μM, 4 days
Text: (§1) The induction of CD11b is associated with granulocytic differentiation, CD14 is considered a monocytic specific antigen and CD15 is a myelomonocytic antigen. Simultaneous induction of CD14 and CD11b relates to monocytic differentiation. […] In nevirapine-treated NB4 and HL60 cells, a strong induction of expression of CD15, and, to a lesser degree, CD11b and CD14 markers was detected.

HL60 cells [5] = assay: Cytofluorimetric analysis of cell surface markers; format: cell-based, human; conditions: HL60, RA 1 μM, 4 days
Text: as §1

NB4 cells [6] = assay: NBT dye reduction assay; format: cell-based, human; conditions: NB4, RA 1 μM, 4 days
[7] = tested on: HeLa adenocarcinoma cells; assay: Cell proliferation by cell counting; format: cell-based, human; conditions: 20 μM efavirenz
Protocol: (§2) The effect of efavirenz was further tested in human HeLa adenocarcinoma and Saos-2 osteosarcoma cells. Both cell lines were cultured in the conditions described above (Example 6). To establish if prolonged exposure to the drug improved the effectiveness of growth inhibition, both cell lines were exposed to efavirenz in two subsequent cycles: during the 1st cycle cells were continuously exposed to 20 μM efavirenz for 5 days; cells were then diluted, reseeded again and the 2nd cycle exposure was initiated the following day with fresh drug. […] The inhibitory effect was time-dependent, since in both HeLa and Saos-2 cultures, the 1st cycle of exposure (5 days) yielded a 1.6- and 1.5-fold reduction, respectively, whereas a 5- and 4-fold reduction was obtained in the 2nd cycle (carried out until day 20 from the onset of exposure).

F9 teratocarcinoma cells = assay: Cell proliferation by cell counting; format: cell-based, murine; conditions: efavirenz 10 and 20 μM, dose-dependent, vs non-exposed cells
Protocol: (§3) NIH/3T3 embryo fibroblasts and F9 teratocarcinoma cells were cultured in DMEM containing 10-20% fetal serum and two concentrations of efavirenz, i.e. 10 and 20 μM, diluted from a stock solution (10 mM) in 100% DMSO. Cells were plated at a density of 2-5×10^4 in 35 mm Petri dishes and exposed to efavirenz 5-6 hours later. Samples were withdrawn at specific times and cells were counted in efavirenz-exposed compared to parallel non-exposed cell cultures.

[8] = tested on: NIH/3T3 embryo fibroblasts; assay: Cell proliferation by cell counting; format: cell-based, murine; conditions: efavirenz 10 and 20 μM, dose-dependent, vs non-exposed cells
Protocol: as §3

Morris 3924A hepatoma = assay: Morris 3924A rat hepatoma in vivo; conditions: efavirenz 1 mg/rat/day from day of inoculation; two treated rats; controls died at 27th day
Protocol: Rat strain: ACI/T inbred (about 180 gr)
Tumor: Morris 3924A hepatoma is a fast-growing tumor which develops in inbred ACI/T animals. Three weeks after inoculation the tumor size is about 10 cm^3.
Preparation of tumor cells: hepatoma tumor cells are prepared from the animal about two weeks after inoculation. The tumor is surgically removed from the animal, separated from connective and necrotic tissues and minced in small pieces. Tumor fragments are then suspended in sterile physiological solution and inoculated in the internal site of one thigh using a 20 ml-syringe with a large size needle. Routinely 0.5 ml of cell suspension are injected. The success rate of tumor implantation is nearly 99%.
On the eleventh day, hepatoma cells were inoculated subcutaneously in pre-treated and in three non-treated control rats.
Procedures and Results: Morris hepatoma cells were inoculated in 4 rats ([…]). The same day, treatment with efavirenz was initiated in two of them by injecting 1 mg/rat/day.

early mouse embryos = assay: Early mouse embryo cultures from in vitro fertilization (IVF) assays; conditions: added to cultures of IVF embryos; preliminary studies
[9] = tested on: Saos-2 osteosarcoma cells; assay: Cell proliferation by cell counting; format: cell-based, human; conditions: 20 μM efavirenz
Protocol: Samples were withdrawn at specific times and cells were counted in nevirapine-exposed and control (DMSO-exposed) cultures. […] Saos-2 osteosarcoma cells were the most slowly responsive type, and only after 5 days of exposure did the growth rate begin to decrease compared to control cultures.
as §2

[10] = 2nd cycle (until day 20 from onset of exposure)

Row | SMILES | Viable cells N^0 × 10^5 (HL60 cells [1]) | Viable cells N^0 × 10^5 (NB4 cells [2]) | NBT+ (%) (HL60 cells [3]) | CD11b mean fluorescence intensity (NB4 cells [4]) [AU] | CD14 mean fluorescence intensity (NB4 cells [4]) [AU] | CD15 mean fluorescence intensity (NB4 cells [4]) [AU] | CD11b mean fluorescence intensity (HL60 cells [5]) [AU] | CD14 mean fluorescence intensity (HL60 cells [5]) [AU] | CD15 mean fluorescence intensity (HL60 cells [5]) [AU] | NBT+ (%) (NB4 cells [6]) | reduction in the rate of cell growth ([7]; 1st cycle of exposure (5 days)) [fold] | reduction in the rate of cell growth [7, 10] [fold] | rate of proliferation (F9 teratocarcinoma cells) | rate of proliferation [8] | tumor development in treated rats (Morris 3924A hepatoma) | development of early mouse embryos (early mouse embryos) | reduction in the rate of cell growth ([9]; 1st cycle of exposure (5 days)) [fold] | reduction in the rate of cell growth [9, 10] [fold]
1 | CC1=C(/C=C/C(C)=C/C=C/C(C)=C/C(=O)O)C(C)(C)CCC1 [RA, retinoic acid] | 6.5 ± 0.9 × 10^5 | 1.4 ± 0.1 × 10^5 | 31.2 ± 1.4 | 53.7 | 19.1 | 421.7 | 15.3 | 23.7 | 609.7 | 80.6 ± 4.5 | – | – | – | – | – | – | – | –
2 | O=C1Nc2ccc(Cl)cc2[C@@](C#CC2CC2)(C(F)(F)F)O1 [efavirenz, (−)-6-chloro-4-cyclopropylethynyl-4-trifluoromethyl-1,4,-dihydro-2H-3,1-benzoxazine-one] | – | – | – | – | – | – | – | – | – | – | 1.6 | 5 | decreases the rate of proliferation | decreases the rate of proliferation | only one of two treated animals developed a tumor of markedly smaller size, whereas the other remained totally healthy | early and effective developmental arrest | 1.5 | 4
